{"source": "patent US7700619B2", "about": "“2-methoxymethyl-3-(3,4-dichlorophenyl)-8-azabicyclo[3.2.1]octane tartrate salts” (Neurosearch A/S, priority 2003, dated 2010)", "assay": "Physical stability of the polymorphic form on repeated preparation", "assay_type": "physicochemical", "details": "successive preparations of Form IV turned out as mixtures of Form IV and Form III", "experimental": "The form was prepared by suspending a freshly prepared Form II in water free ethanol. Separation of the suspended matter was conducted after 24 hours and subsequent drying under vacuum.\nForm IV can also be obtained from suspension of Form III by the same procedure as described using Form II.\nSuccessive preparations of Form IV turned out as mixtures of Form IV and Form III, indicating difficulties in producing Form IV"}
{"molecule": "COC[C@@H]1[C@@H](c2ccc(Cl)c(Cl)c2)C[C@@H]2CC[C@H]1N2.O=C(O)C(O)C(O)C(=O)O", "note": "[Form IV, (1R,2R,3S,5S)-2-methoxymethyl-3-(3,4-dichlorophenyl)-8-azabicyclo[3.2.1]octane L-tartrate anhydrate (Form IV)]", "values": [{"measurement": "physical stability of the crystal form", "value": "physically metastable"}]}
